Columns and labels:
Assay in all cases: Kinase panel study
Assay type in all cases: biochemical
Details in all cases: read-out: Percentage of inhibition; for inhibition at 1 µM: 1000nM; for inhibition at 10 µM: 10000nM
AURKC (Aurora C) = biological target: T1, AURKC (Aurora C) (Homo sapiens, UniProt Q9UQB9)
T1 construct: purchased Thermo Fisher Scientific
T1 sequence (Q9UQB9 1-309): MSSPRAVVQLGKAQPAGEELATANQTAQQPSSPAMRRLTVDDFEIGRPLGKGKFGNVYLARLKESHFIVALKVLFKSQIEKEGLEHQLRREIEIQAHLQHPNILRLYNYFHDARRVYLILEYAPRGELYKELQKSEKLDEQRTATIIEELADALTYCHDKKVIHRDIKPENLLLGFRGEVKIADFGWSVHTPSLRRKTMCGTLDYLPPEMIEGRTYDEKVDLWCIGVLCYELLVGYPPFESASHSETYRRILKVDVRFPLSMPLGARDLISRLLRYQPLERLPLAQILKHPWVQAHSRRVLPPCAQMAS
Summary of the method: (§1)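 Inhibition was measured in an outsourced in vitro kinase panel using the ZLyte or Adapta format under the provider's standard procedures. Values are percent inhibition at 10 µM or 1 µM compound, and IC50s were also obtained.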

LYN B = biological target: T2, LYN B (Homo sapiens, UniProt P07948)
T2 construct: purchased Thermo Fisher Scientific
T2 sequence (P07948 1-491 isoform P07948-2): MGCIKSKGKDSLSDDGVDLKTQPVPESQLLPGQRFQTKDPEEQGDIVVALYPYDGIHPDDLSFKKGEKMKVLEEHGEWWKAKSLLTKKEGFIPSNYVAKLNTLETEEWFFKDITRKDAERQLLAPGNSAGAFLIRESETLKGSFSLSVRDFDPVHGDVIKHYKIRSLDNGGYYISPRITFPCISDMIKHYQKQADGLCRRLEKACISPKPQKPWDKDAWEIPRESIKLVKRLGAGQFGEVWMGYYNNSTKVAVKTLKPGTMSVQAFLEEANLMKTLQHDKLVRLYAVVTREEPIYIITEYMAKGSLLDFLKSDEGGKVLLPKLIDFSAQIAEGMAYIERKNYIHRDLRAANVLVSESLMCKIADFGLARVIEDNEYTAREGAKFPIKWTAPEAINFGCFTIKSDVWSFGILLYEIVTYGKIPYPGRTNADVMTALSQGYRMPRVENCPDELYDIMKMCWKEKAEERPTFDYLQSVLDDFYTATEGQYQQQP
Summary of the method: as §1

GRK4 = biological target: T3, GRK4 (Homo sapiens, UniProt P32298)
T3 construct: purchased Thermo Fisher Scientific
T3 sequence (P32298 whole entry): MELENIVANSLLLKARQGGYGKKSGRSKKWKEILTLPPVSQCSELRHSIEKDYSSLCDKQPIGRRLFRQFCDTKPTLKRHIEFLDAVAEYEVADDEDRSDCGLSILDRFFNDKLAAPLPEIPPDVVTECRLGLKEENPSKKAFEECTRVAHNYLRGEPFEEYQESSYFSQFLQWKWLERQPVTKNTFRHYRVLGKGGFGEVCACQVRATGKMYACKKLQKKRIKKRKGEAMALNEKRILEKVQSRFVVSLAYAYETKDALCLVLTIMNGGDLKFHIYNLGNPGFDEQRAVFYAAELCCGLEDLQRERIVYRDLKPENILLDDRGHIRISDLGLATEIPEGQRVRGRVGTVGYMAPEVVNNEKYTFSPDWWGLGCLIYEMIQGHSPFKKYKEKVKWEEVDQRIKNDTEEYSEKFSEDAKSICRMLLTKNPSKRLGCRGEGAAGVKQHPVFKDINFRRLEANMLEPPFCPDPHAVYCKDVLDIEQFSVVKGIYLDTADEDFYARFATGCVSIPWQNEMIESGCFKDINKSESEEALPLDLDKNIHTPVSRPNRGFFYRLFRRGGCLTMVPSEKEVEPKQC
Summary of the method: as §1

ABL1 F317I = biological target: T4, ABL1 F317I (Homo sapiens, UniProt P00519, F317I)
T4 construct: purchased Thermo Fisher Scientific
T4 sequence (P00519 whole entry F317I): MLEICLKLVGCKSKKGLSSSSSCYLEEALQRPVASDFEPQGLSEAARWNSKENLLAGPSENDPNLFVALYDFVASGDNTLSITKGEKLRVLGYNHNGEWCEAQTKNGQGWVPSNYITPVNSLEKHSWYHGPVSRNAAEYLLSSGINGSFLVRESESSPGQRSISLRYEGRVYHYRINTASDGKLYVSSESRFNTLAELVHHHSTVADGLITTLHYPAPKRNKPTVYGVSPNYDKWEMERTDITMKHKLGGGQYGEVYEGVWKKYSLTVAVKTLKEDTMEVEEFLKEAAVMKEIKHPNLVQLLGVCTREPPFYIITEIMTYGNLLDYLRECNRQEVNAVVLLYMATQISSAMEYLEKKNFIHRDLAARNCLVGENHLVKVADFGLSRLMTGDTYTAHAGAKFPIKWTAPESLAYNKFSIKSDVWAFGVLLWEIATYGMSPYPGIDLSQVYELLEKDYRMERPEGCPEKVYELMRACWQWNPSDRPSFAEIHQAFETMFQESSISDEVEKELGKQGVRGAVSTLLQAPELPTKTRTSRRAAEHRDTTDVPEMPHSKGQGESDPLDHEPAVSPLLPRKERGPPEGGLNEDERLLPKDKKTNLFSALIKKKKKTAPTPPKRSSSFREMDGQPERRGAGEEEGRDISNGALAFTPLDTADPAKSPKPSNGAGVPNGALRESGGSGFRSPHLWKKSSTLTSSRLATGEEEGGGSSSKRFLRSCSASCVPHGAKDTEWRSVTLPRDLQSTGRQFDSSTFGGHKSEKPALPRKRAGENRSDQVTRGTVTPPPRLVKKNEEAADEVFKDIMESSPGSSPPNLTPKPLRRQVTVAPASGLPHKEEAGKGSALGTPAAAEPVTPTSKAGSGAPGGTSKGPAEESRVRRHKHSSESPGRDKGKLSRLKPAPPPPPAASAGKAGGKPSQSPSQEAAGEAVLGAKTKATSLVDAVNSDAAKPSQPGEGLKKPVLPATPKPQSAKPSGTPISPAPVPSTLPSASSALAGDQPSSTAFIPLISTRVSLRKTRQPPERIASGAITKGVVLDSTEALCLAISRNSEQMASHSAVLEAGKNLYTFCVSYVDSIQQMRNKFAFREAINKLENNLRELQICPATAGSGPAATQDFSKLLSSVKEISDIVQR
Summary of the method: as §1

MELK = biological target: T5, MELK (Homo sapiens, UniProt Q14680)
T5 construct: purchased Thermo Fisher Scientific
T5 sequence (Q14680 whole entry): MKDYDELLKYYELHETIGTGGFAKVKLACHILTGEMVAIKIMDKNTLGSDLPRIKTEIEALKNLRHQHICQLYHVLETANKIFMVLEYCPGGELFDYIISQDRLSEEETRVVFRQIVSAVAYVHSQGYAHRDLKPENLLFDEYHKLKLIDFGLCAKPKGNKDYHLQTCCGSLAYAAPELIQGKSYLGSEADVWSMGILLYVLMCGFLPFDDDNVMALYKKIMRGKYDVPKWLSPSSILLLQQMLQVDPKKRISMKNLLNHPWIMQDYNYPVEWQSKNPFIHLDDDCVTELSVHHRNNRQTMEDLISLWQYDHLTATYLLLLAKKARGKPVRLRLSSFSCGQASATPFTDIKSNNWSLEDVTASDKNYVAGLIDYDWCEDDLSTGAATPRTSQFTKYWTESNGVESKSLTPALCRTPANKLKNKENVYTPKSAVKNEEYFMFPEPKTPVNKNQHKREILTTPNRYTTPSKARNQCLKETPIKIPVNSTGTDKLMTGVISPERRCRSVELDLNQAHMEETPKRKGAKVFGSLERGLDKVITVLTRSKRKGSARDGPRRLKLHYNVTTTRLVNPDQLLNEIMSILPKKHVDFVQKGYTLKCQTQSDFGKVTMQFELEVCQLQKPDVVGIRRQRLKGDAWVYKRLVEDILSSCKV
Summary of the method: as §1

MAP4K5 (KHS1) = biological target: T6, MAP4K5 (KHS1) (Homo sapiens, UniProt Q9Y4K4)
T6 construct: purchased Thermo Fisher Scientific
T6 sequence (Q9Y4K4 whole entry): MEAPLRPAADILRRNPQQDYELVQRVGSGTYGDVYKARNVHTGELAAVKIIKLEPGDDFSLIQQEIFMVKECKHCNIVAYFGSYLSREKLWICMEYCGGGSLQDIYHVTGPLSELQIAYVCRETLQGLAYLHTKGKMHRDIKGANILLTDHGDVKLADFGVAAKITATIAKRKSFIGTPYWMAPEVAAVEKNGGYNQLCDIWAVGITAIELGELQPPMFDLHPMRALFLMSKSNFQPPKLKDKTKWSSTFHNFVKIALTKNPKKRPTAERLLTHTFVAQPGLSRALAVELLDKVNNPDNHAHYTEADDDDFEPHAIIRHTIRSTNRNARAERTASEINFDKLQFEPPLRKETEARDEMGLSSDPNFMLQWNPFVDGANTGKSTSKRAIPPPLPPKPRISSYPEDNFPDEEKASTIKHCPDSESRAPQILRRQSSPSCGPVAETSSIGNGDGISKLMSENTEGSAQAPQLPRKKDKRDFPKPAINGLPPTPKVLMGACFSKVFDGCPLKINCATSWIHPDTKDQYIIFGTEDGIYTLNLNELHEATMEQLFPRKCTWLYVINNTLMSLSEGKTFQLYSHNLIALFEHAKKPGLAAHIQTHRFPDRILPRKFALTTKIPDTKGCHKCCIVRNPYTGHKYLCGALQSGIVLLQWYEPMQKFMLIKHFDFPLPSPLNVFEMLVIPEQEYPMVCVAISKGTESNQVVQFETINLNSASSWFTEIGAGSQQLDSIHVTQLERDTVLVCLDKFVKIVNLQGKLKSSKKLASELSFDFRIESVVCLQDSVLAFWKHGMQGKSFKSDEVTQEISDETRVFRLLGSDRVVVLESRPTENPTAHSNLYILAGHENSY
Summary of the method: as §1

MAP3K19 (YSK4) = biological target: T7, MAP3K19 (YSK4) (Homo sapiens, UniProt Q56UN5)
T7 construct: purchased Thermo Fisher Scientific
T7 sequence (Q56UN5 1-1328): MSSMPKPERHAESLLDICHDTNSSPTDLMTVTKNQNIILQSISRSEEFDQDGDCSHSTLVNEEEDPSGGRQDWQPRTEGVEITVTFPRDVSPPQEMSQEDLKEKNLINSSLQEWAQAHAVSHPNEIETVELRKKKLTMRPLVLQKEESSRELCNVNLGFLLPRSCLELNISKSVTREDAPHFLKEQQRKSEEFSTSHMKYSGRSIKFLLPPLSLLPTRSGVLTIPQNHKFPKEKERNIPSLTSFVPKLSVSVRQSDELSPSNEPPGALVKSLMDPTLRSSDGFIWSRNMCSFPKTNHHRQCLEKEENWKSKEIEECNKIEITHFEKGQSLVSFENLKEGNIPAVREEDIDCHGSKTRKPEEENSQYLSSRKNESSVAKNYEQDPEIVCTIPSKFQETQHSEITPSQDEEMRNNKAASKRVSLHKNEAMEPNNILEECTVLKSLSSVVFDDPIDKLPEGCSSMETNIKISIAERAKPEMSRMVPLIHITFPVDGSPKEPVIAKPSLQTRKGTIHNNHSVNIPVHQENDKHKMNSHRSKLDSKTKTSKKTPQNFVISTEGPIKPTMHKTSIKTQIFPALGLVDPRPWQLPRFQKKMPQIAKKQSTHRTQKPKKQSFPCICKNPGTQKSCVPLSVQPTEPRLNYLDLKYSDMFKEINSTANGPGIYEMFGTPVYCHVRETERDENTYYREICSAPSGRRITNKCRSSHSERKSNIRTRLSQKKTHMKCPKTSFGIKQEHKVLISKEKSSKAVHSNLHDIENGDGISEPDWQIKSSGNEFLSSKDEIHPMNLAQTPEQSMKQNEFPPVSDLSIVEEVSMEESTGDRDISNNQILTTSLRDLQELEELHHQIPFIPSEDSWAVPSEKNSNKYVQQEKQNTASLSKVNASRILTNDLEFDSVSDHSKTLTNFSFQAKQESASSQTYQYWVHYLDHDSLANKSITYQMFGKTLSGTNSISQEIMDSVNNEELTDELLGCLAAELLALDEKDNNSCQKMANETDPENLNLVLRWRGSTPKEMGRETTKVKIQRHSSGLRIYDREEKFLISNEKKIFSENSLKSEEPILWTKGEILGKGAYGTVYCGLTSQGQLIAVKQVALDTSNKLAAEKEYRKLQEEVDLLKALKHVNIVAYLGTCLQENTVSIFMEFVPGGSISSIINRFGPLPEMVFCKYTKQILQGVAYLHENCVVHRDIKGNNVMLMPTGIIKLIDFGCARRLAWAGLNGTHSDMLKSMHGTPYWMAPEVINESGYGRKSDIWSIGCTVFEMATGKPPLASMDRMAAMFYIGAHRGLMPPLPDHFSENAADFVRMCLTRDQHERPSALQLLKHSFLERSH
Summary of the method: as §1

With `COc1ccc2c(c1OC)c(=O)n1c3ccc(O)cc3c3ccnc2c31` [MW01, 5-Hydroxy-10,11-dimethoxy-9H-benzo[c]indolo[3,2,1-ij][1,5]naphthyridin-9-one] the inhibition at 1 µM (AURKC (Aurora C)) was 8%, the inhibition at 10 µM (AURKC (Aurora C)) was 10% and the inhibition at 1 µM (LYN B) was 6%. The inhibition at 10 µM (LYN B) was 23%, the inhibition at 1 µM (GRK4) was 8% and the inhibition at 10 µM (GRK4) was 12%. For the same molecule, the inhibition at 1 µM (ABL1 F317I) was 8%, the inhibition at 10 µM (ABL1 F317I) was 19% and the inhibition at 1 µM (MELK) was 26%. It also gave an inhibition at 10 µM (MELK) of 54%, an inhibition at 1 µM (MAP4K5 (KHS1)) of 39% and an inhibition at 10 µM (MAP4K5 (KHS1)) of 68%. The inhibition at 1 µM (MAP3K19 (YSK4)) was 4% and the inhibition at 10 µM (MAP3K19 (YSK4)) was 17%.
For `COc1ccc2cc3c(N)nn(C(=O)c4cccc(N(C)C)c4)c3nc2c1` [MW05, (3-Amino-7-methoxypyrazolo[3,4-b]quinolin-1-yl)-[3-(dimethylamino)phenyl]methanone], the inhibition at 1 µM (AURKC (Aurora C)) was 9%, the inhibition at 10 µM (AURKC (Aurora C)) was 9% and the inhibition at 1 µM (LYN B) was 6%. For the same molecule, the inhibition at 10 µM (LYN B) was 0%, the inhibition at 1 µM (GRK4) was -1% and the inhibition at 10 µM (GRK4) was 2%. The inhibition at 1 µM (ABL1 F317I) was 6%, the inhibition at 10 µM (ABL1 F317I) was -1% and the inhibition at 1 µM (MELK) was 28%. It also gave an inhibition at 10 µM (MELK) of 48%, an inhibition at 1 µM (MAP4K5 (KHS1)) of 15% and an inhibition at 10 µM (MAP4K5 (KHS1)) of 4%. The inhibition at 1 µM (MAP3K19 (YSK4)) was -3% and the inhibition at 10 µM (MAP3K19 (YSK4)) was -5%.

Reference: patent publication EP4467141A1, “PYRAZOLO-QUINOLINES AS SELECTIVE INHIBITORS OF GENOTOXIC STRESS-INDUCED IKK/NF- KB PATHWAYS FOR CANCER THERAPY” (Max-Delbrück-Centrum für Molekulare Medizin in der …, priority 2023, dated 2024)
